Assay results: patent publication US20230374015A1, “INHIBITORS OF FIBROBLAST GROWTH FACTOR RECEPTOR KINASES” (Kinnate Biopharma Inc., priority 2020, published 2023)

Each molecule was assayed against FGFR2 (Homo sapiens, UniProt P21802) (assay: FGFR2 Kinase Protocol - Condition 2 (Reaction Biology HotSpot radiometric kinase assay, no preincubation)). Settings: poly[Glu:Tyr] (4:1) 0.2 mg/ml, ATP 100 microM, 2 hr room temperature.
Format: biochemical
Procedure, shortened: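 Ten-point, 3-fold compound dilutions were tested against wildtype or V564F FGFR2 with 100 µM ATP (33P-labelled), no preincubation, and 0.2 mg/ml poly[Glu:Tyr] (4:1) substrate. After 2 hr at room temperature, incorporation was read on P81 filter paper; IC50 fitted from activity remaining relative to vehicle.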

Chain of FGFR2 (P21802 22-821): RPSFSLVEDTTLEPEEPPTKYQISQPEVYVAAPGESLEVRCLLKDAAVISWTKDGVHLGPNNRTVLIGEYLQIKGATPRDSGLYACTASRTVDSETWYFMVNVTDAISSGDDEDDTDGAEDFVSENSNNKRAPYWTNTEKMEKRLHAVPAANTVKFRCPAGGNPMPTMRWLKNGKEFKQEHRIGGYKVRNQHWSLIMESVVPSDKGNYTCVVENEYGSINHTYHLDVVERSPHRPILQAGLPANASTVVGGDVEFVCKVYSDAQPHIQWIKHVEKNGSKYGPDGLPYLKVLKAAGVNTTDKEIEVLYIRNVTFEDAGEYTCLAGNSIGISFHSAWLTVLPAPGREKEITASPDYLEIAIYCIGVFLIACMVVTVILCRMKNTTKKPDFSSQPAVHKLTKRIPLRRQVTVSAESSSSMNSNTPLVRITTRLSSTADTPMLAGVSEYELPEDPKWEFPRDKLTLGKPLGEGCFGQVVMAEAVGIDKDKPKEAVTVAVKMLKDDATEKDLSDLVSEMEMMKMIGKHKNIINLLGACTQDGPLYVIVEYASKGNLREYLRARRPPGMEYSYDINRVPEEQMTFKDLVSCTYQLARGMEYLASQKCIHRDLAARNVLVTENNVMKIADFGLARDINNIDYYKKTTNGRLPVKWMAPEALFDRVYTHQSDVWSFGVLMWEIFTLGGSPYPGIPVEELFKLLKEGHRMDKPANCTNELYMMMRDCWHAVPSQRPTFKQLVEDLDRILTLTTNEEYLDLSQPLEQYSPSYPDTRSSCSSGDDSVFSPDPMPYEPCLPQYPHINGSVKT

IC50, ≤ 100 nM:
C=CC(=O)N1C[C@@H](n2nc(C#Cc3cc4ncn(C)c4c(F)c3F)c3c(N)ncnc32)C[C@@H]1COC [Example 120, 1-((2R,4S)-4-(4-Amino-3-((6,7-difluoro-1-methyl-1H-benzo[d]imidazol-5-yl)ethynyl)-1H-pyrazolo[3,4-d]pyrimidin-1-yl)-2-(methoxymethyl)pyrrolidin-1-yl)prop-2-en-1-one]
C=CC(=O)N1C[C@@H](n2nc(C#Cc3cc4ncn(C)c4cc3F)c3c(N)nccc32)C[C@@H]1C(F)F [Example 181, 1-((2R,4S)-4-(4-amino-3-((6-fluoro-1-methyl-1H-benzo[d]imidazol-5-yl)ethynyl)-1H-pyrazolo[4,3-c]pyridin-1-yl)-2-(difluoromethyl)pyrrolidin-1-yl)prop-2-en-1-one]
C=CC(=O)N1C[C@@H](n2nc(C#Cc3cc4ncn(C)c4c(F)c3F)c3c(N)nccc32)C[C@@H]1CC#N [Example 159, 2-((2R,4S)-1-Acryloyl-4-(4-amino-3-((6,7-difluoro-1-methyl-1H-benzo[d]imidazol-5-yl)ethynyl)-1H-pyrazolo[4,3-c]pyridin-1-yl)pyrrolidin-2-yl)acetonitrile]
C=CC(=O)N1C[C@@H](n2nc(C#Cc3cc4ncn(C)c4cc3Cl)c3c(N)ncnc32)C[C@@H]1C [Example 164, 1-((2S,4S)-4-(4-amino-3-((6-chloro-1-methyl-1H-benzo[d]imidazol-5-yl)ethynyl)-1H-pyrazolo[3,4-d]pyrimidin-1-yl)-2-methylpyrrolidin-1-yl)prop-2-en-1-one]
C=CC(=O)N1CC[C@H](n2nc(C#Cc3cc4ncn(C)c4c(F)c3F)c3c(N)nccc32)C1 [Example 156, 1-[(3S)-3-{4-Amino-3-[2-(6,7-difluoro-1-methyl-1,3-benzodiazol-5-yl)ethynyl]pyrazolo[4,3-c]pyridin-1-yl}pyrrolidin-1-yl]prop-2-en-1-one]
C=CC(=O)N1C[C@@H](n2nc(C#Cc3cc4ncn(CC)c4cc3F)c3c(N)nccc32)C[C@@H]1COC [Example 79, 1-[(2R,4S)-4-[4-Amino-3-[2-(1-ethyl-6-fluoro-1,3-benzodiazol-5-yl)ethynyl]pyrazolo[4,3-c]pyridin-1-yl]-2-(methoxymethyl)pyrrolidin-1-yl]prop-2-en-1-one]
C=CC(=O)N1C[C@@H](n2nc(C#Cc3cc4ncn(C)c4c(F)c3Cl)c3c(N)ncnc32)C[C@@H]1CC#N [Example 161, 2-[(2R,4S)-4-{4-Amino-3-[2-(6-chloro-7-fluoro-1-methyl-1,3-benzodiazol-5-yl)ethynyl]pyrazolo[3,4-d]pyrimidin-1-yl}-1-(prop-2-enoyl)pyrrolidin-2-yl]acetonitrile]
C=CC(=O)N1C[C@@H](c2nc(C#Cc3cc4ncn(C5CC5)c4cc3F)c3c(N)nccn23)C[C@@H]1COC [Example 203, 1-[(2R,4S)-4-{8-Amino-1-[2-(1-cyclopropyl-6-fluoro-1,3-benzodiazol-5-yl)ethynyl]imidazo[1,5-a]pyrazin-3-yl}-2-(methoxymethyl)pyrrolidin-1-yl]prop-2-en-1-one]
C=CC(=O)N1C[C@@H](n2nc(C#Cc3cc4ncn(C5CC5)c4cc3F)c3c(N)ncnc32)C[C@@H]1COC(F)F [Example 196, 1-((2R,4S)-4-(4-Amino-3-((1-cyclopropyl-6-fluoro-1H-benzo[d]imidazol-5-yl)ethynyl)-1H-pyrazolo[3,4-d]pyrimidin-1-yl)-2-((difluoromethoxy)methyl)pyrrolidin-1-yl)prop-2-en-1-one]
C=CC(=O)N1C[C@@H](n2cc(C#Cc3cc4ncn(C(F)F)c4cc3F)c3c(N)ncnc32)C[C@@H]1COC [Example 84, 1-[(2R,4S)-4-(4-Amino-5-[2-[1-(difluoromethyl)-6-fluoro-1,3-benzodiazol-5-yl]ethynyl]pyrrolo[2,3-d]pyrimidin-7-yl)-2-(methoxymethyl)pyrrolidin-1-yl]prop-2-en-1-one]
C=CC(=O)N1CC[C@H](n2nc(C#Cc3cc4ncn(C)c4c(F)c3Cl)c3c(N)nccc32)C1 [Example 148, 1-[(3S)-3-{4-Amino-3-[2-(6-chloro-7-fluoro-1-methyl-1,3-benzodiazol-5-yl)ethynyl]pyrazolo[4,3-c]pyridin-1-yl}pyrrolidin-1-yl]prop-2-en-1-one]
C=CC(=O)N1CC[C@H](n2nc(C#Cc3cc4ncn(C5CC5)c4cc3F)c3c(N)ncnc32)C1 [Example 146, (S)-1-(3-(4-Amino-3-((1-cyclopropyl-6-fluoro-1H-benzo[d]imidazol-5-yl)ethynyl)-1H-pyrazolo[3,4-d]pyrimidin-1-yl)pyrrolidin-1-yl)prop-2-en-1-one]
C=CC(=O)N1C[C@@H](n2nc(C#Cc3cc4ncn(C)c4cc3Cl)c3c(N)nccc32)C[C@@H]1C [Example 167, 1-((2S,4S)-4-(4-amino-3-((6-chloro-1-methyl-1H-benzo[d]imidazol-5-yl)ethynyl)-1H-pyrazolo[4,3-c]pyridin-1-yl)-2-methylpyrrolidin-1-yl)prop-2-en-1-one]
C=CC(=O)N1C[C@@H](n2nc(C#Cc3ccc4c(c3)ncn4C3CC3)c3c(N)ncnc32)C[C@@H]1CC#N [Example 188, 2-[(2R,4S)-4-{4-Amino-3-[2-(1-cyclopropyl-1,3-benzodiazol-5-yl)ethynyl]pyrazolo[3,4-d]pyrimidin-1-yl}-1-(prop-2-enoyl)pyrrolidin-2-yl]acetonitrile]
C=CC(=O)N1C[C@@H](n2nc(C#Cc3c(F)cc4c(ncn4CC)c3F)c3c(N)ncnc32)C[C@@H]1COC [Example 85, 1-[(2R,4S)-4-[4-Amino-3-[2-(1-ethyl-4,6-difluoro-1,3-benzodiazol-5-yl)ethynyl]pyrazolo[3,4-d]pyrimidin-1-yl]-2-(methoxymethyl)pyrrolidin-1-yl]prop-2-en-1-one]
C=CC(=O)N1C[C@@H](n2nc(C#Cc3c(Cl)cc4c(ncn4C)c3F)c3c(N)ncnc32)C[C@@H]1COC [Example 104, 1-[(2R,4S)-4-[4-Amino-3-[2-(6-chloro-4-fluoro-1-methyl-1,3-benzodiazol-5-yl)ethynyl]pyrazolo[3,4-d]pyrimidin-1-yl]-2-(methoxymethyl)pyrrolidin-1-yl]prop-2-en-1-one]
C=CC(=O)N1C[C@@H](n2nc(C#Cc3cc4ncn(C)c4cc3F)c3c(N)ncnc32)C[C@@H]1CF [Example 184, 1-[(2R,4S)-4-{4-Amino-3-[2-(6-fluoro-1-methyl-1,3-benzodiazol-5-yl)ethynyl]pyrazolo[3,4-d]pyrimidin-1-yl}-2-(fluoromethyl)pyrrolidin-1-yl]prop-2-en-1-one]
C=CC(=O)N1C[C@@H](n2nc(C#Cc3c(F)cc4c(ncn4C4CC4)c3F)c3c(N)ncnc32)C[C@@H]1COC [Example 72, 1-[(2R,4S)-4-[4-Amino-3-[2-(1-cyclopropyl-4,6-difluoro-1,3-benzodiazol-5-yl)ethynyl]pyrazolo[3,4-d]pyrimidin-1-yl]-2-(methoxymethyl)pyrrolidin-1-yl]prop-2-en-1-one]
C=CC(=O)N1C[C@@H](n2nc(C#Cc3cc4ncn(C)c4c(F)c3Cl)c3c(N)nccc32)C[C@@H]1CC#N [Example 174, 2-[(2R,4S)-4-{4-Amino-3-[2-(6-chloro-7-fluoro-1-methyl-1,3-benzodiazol-5-yl)ethynyl]pyrazolo[4,3-c]pyridin-1-yl}-1-(prop-2-enoyl)pyrrolidin-2-yl]acetonitrile]
C=CC(=O)N1C[C@@H](n2nc(C#Cc3cc4ncn(C5CC5)c4cc3Cl)c3c(N)ncnc32)C[C@@H]1CC#N [Example 187, 2-[(2R,4S)-4-{4-Amino-3-[2-(6-chloro-1-cyclopropyl-1,3-benzodiazol-5-yl)ethynyl]pyrazolo[3,4-d]pyrimidin-1-yl}-1-(prop-2-enoyl)pyrrolidin-2-yl]acetonitrile]
C=CC(=O)N1C[C@@H](n2nc(C#Cc3c(F)cc4c(ncn4C4CC4)c3F)c3c(N)ncnc32)C[C@@H]1COC(F)(F)F [Example 76, 1-[(2R,4S)-4-[4-Amino-3-[2-(1-cyclopropyl-4,6-difluoro-1,3-benzodiazol-5-yl)ethynyl]pyrazolo[3,4-d]pyrimidin-1-yl]-2-[(trifluoromethoxy)methyl]pyrrolidin-1-yl]prop-2-en-1-one]
C=CC(=O)N1C[C@@H](n2nc(C#Cc3cc4nccn4cc3F)c3c(N)ncnc32)C[C@@H]1COC [Example 124, 1-((2R,4S)-4-(4-Amino-3-((6-fluoroimidazo[1,2-a]pyridin-7-yl)ethynyl)-1H-pyrazolo[3,4-d]pyrimidin-1-yl)-2-(methoxymethyl)pyrrolidin-1-yl)prop-2-en-1-one]
C=CC(=O)N1C[C@@H](n2nc(C#Cc3ccc4c(cnn4CC)c3)c3c(N)ncnc32)C[C@@H]1COC [Example 34, 1-((2R,4S)-4-(4-amino-3-((1-ethyl-1H-indazol-5-yl)ethynyl)-1H-pyrazolo[3,4-d]pyrimidin-1-yl)-2-(methoxymethyl)pyrrolidin-1-yl)prop-2-en-1-one]
C=CC(=O)N1C[C@@H](n2cc(C#Cc3cc4nc(C)[nH]c4cc3Cl)c3c(N)ncnc32)C[C@@H]1COC [Example 89, 1-[(2R,4S)-4-[4-Amino-5-[2-(6-chloro-2-methyl-1H-1,3-benzodiazol-5-yl)ethynyl]pyrrolo[2,3-d]pyrimidin-7-yl]-2-(methoxymethyl)pyrrolidin-1-yl]prop-2-en-1-one]
